Measurements: ChEMBL document CHEMBL3351610, “Synthesis and biological evaluation of substituted 4-(thiophen-2-ylmethyl)-2H-phthalazin-1-ones as potent PARP-1 inhibitors” (Bioorg Med Chem Lett, 2014)

Target: Poly [ADP-ribose] polymerase 1 (Homo sapiens, UniProt P09874)
Assay: Inhibition of human PARP1

Poly [ADP-ribose] polymerase 1, sequence (P09874 whole entry): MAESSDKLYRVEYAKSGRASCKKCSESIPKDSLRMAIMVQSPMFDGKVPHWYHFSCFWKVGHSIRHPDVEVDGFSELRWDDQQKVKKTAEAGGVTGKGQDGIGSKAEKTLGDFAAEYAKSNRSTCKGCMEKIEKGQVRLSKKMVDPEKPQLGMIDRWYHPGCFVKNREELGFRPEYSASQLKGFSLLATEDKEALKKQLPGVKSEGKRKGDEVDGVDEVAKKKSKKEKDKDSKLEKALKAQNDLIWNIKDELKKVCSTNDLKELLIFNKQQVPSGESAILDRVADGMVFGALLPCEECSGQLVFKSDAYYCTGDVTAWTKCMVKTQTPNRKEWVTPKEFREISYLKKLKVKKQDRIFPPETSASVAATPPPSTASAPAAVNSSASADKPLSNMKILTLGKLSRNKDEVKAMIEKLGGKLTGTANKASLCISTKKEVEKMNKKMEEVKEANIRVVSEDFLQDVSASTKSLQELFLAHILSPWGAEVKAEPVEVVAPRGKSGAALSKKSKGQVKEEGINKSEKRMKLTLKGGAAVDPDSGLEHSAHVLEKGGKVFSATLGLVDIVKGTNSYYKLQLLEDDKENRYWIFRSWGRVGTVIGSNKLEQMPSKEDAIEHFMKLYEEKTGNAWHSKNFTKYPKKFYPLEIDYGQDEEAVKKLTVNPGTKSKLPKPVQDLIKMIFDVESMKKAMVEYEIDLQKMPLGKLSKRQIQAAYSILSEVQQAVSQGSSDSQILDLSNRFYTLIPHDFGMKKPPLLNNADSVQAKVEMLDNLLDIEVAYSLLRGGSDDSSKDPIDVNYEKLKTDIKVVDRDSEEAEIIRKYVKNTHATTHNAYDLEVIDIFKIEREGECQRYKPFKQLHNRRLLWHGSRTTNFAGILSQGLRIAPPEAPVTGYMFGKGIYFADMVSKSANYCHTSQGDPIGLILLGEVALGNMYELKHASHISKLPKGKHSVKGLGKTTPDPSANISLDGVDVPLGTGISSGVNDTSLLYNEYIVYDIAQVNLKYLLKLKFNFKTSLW

SMILES	IC50
O=C(c1csc(Cc2n[nH]c(=O)c3ccccc23)c1)N1CCN(C(=O)C2CC2)CC1	0.105 µM
CC(=O)N1CCN(C(=O)c2csc(Cc3n[nH]c(=O)c4ccccc34)c2)CC1	0.124 µM
CCC(=O)N1CCN(C(=O)c2csc(Cc3n[nH]c(=O)c4ccccc34)c2)CC1	0.0786 µM
COc1ccc(CC(=O)N2CCN(C(=O)c3csc(Cc4n[nH]c(=O)c5ccccc45)c3)CC2)cc1	0.0949 µM
O=C(c1csc(Cc2n[nH]c(=O)c3ccccc23)c1)N1CCN(C(=O)c2ccc3c(c2)OCO3)CC1	0.0396 µM

Results, then the molecule that gave them:

IC50	SMILES
0.0855 µM	N#Cc1ccc(C(=O)N2CCN(C(=O)c3csc(Cc4n[nH]c(=O)c5ccccc45)c3)CC2)cc1
0.0723 µM	O=C(c1ccc(Br)cc1)N1CCN(C(=O)c2csc(Cc3n[nH]c(=O)c4ccccc34)c2)CC1
0.0108 µM	O=C(c1csc(Cc2n[nH]c(=O)c3ccccc23)c1)N1CCN(C(=O)c2cccs2)CC1
0.108 µM	O=C(c1ccncc1)N1CCN(C(=O)c2csc(Cc3n[nH]c(=O)c4ccccc34)c2)CC1
0.0461 µM	O=C(c1csc(Cc2n[nH]c(=O)c3ccccc23)c1)N1CCN(C(=O)c2ccccn2)CC1
